According to US20120122928A1 (priority 2010, published 2012):
Marks after values point to notes of the source that are not given here.

Assays:
Phytophthora infestans = type: in vivo; details: young tomato plants sprayed, active ingredient concentration of 100 (unit not given); inoculated 1 day after treatment; evaluation 7 days after inoculation; 100% = no infection
Plasmopara viticola = assay: Plasmopara test (grapevine) / protective; type: in vivo; details: young grapevine plants sprayed, active ingredient concentration 10 ppm; evaluation 6 days after inoculation; 100% = no infection
Method: Plasmopara Test (Grapevine)/Protective
To produce an appropriate active ingredient formulation, 1 part by weight of active ingredient is mixed with the specified amounts of solvent and emulsifier, and the concentrate is diluted with water to the desired concentration.
To test for protective efficacy, young plants are sprayed with the active ingredient formulation at the stated application rate. After the spray coating has dried on, the plants are inoculated with an aqueous spore suspension of Plasmopara viticola and then remain in an incubation cabin at approx. 20° C. and 100% relative air humidity for 1 day. Subsequently, the plants are placed in a greenhouse at approx. 21° C. and approx. 90% air humidity for 4 days. The plants are then moistened and placed in an incubation cabin for 1 day.
Evaluation follows 6 days after the inoculation. 0% means an efficacy which corresponds to that of the control, whereas an efficacy of 100% means that no infection is observed.
In this test, the following inventive compounds show, at an active ingredient concentration of 10 ppm, an efficacy of 70% or more: […]

Peronospora brassicae = assay: Peronospora test (oilseed rape seeds) / seed treatment; type: in vivo; details: dose 50 g/dt, 14-day-old plants inoculated, incubated 7 days, infected leaf area, 100% = no disease
Method: Peronospora Test (Oilseed Rape Seeds)/Seed Treatment
The test was conducted under greenhouse conditions.
Oilseed rape seeds treated with an inventive active compound or a combination of inventive active compounds dissolved in N-methyl-2-pyrrolidone and diluted with water to the desired dose were sown in 6*6 cm vessels. The vessels contain 4 cm of a 1:1 mixture of steam-treated field soil and sand. The plants grew at 10° C.
14-day-old plants were inoculated with an aqueous spore suspension of Peronospora brassicae. The vessels containing the plants were incubated in a greenhouse at a temperature of 15° C. and a relative air humidity of 100% for 7 days.
The assessment of the test included the evaluation of the infected leaf area per plant. 0% means an efficiency corresponding to that of the control, while an efficiency of 100% means that no disease is observed.

[1] = LC-MS determination in the acidic range, pH 2.7, 0.1% aqueous formic acid and acetonitrile

Row | SMILES | % eff. (Phytophthora infestans) | % eff. (Plasmopara viticola) | % eff. (Peronospora brassicae) | chromatographic logP (physchem; pH 2.7) | chromatographic logP (physchem; pH 7.8) | Log P [a] [1]
1 | O=C(Cn1nc(C(F)F)cc1C(F)F)N1CCC(c2nc(C3=NOC(COc4ccccc4)C3)cs2)CC1 (stereo not shown) [I-2, 2-[3,5-Bis(difluoromethyl)-1H-pyrazol-1-yl]-1-(4-{4-[5-(phenoxymethyl)-4,5-dihydro-1,2-oxazol-3-yl]-1,3-thiazol-2-yl}piperidin-1-yl)ethanone] | 100% | 97% | 95% | 3.22 | 3.25 | 
2 | O=C(Cn1nc(C(F)F)cc1C(F)F)N1CCC(c2nc(C3=NOC(COc4ccccc4F)C3)cs2)CC1 (stereo not shown) [I-3] | 100% | 100% | 98% |  |  | 3.19
3 | O=C(Cn1nc(C(F)F)cc1C(F)F)N1CCC(c2nc(C3=NOC(C(F)(F)c4ccccc4)C3)cs2)CC1 (stereo not shown) [I-9, 2-[3,5-Bis(difluoromethyl)-1H-pyrazol-1-yl]-1-[4-(4-{5-[difluoro(phenyl)methyl]-4,5-dihydro-1,2-oxazol-3-yl}-1,3-thiazol-2-yl)piperidin-1-yl]ethanone] | 100% | 100% | 97% | 3.41 |  | 
4 | COC(c1ccccc1)C1CC(c2csc(C3(F)CCN(C(=O)Cn4nc(C(F)F)cc4C(F)F)CC3)n2)=NO1 (stereo not shown) [I-15, 2-[3,5-Bis(difluoromethyl)-1H-pyrazol-1-yl]-1-[4-fluoro-4-(4-{5-[methoxy(phenyl)methyl]-4,5-dihydro-1,2-oxazol-3-yl}-1,3-thiazol-2-yl)piperidin-1-yl]ethanone] | 95% |  |  | 3.56 |  | 
5 | O=C(Nc1cc(C(F)F)ccc1C(F)F)N1CCC(c2nc(C3=NOC(C(F)(F)c4ccccc4)C3)cs2)CC1 (stereo not shown) [I-16, N-[2,5-Bis(difluoromethyl)phenyl]-4-(4-{5-[difluoro(phenyl)methyl]-4,5-dihydro-1,2-oxazol-3-yl}-1,3-thiazol-2-yl)piperidine-1-carboxamide] | 100% | 87% |  | 3.64 |  | 
6 | FC(F)c1cc(C(F)F)n(CC(=S)N2CCC(c3nc(C4=NOC(C(F)(F)c5ccccc5)C4)cs3)CC2)n1 (stereo not shown) [I-31, 2-[3,5-Bis(difluoromethyl)-1H-pyrazol-1-yl]-1-[4-(4-{5-[difluoro(phenyl)methyl]-4,5-dihydro-1,2-oxazol-3-yl}-1,3-thiazol-2-yl)piperidin-1-yl]ethanethione] | 100% | 85% |  | 3.88 |  | 
7 | O=C(Cn1nc(C(F)F)cc1C(F)F)N1CCC(c2nc(C3=NOC(COc4c(Br)cccc4Br)C3)cs2)CC1 (stereo not shown) [I-36] | 100% | 100% | 78% |  |  | 3.9
8 | Cc1cc(C(F)(F)F)nn1CC(=O)N1CCC(c2nc(C3=NOC(COc4ccccc4)C3)cs2)CC1 (stereo not shown) [I-37] | 100% | 97% |  |  |  | 3.27
9 | Cc1ccc(C)c(NC(=S)N2CCC(c3nc(C4=NOC(C(F)c5ccccc5)C4)cs3)CC2)c1 (stereo not shown) [I-39] | 100% | 78% |  |  |  | 3.61^[a]
10 | C[Si](C)(c1ccccc1)C1CC(c2csc(C3CCN(C(=O)Cn4nc(C(F)F)cc4C(F)F)CC3)n2)=NO1 (stereo not shown) [I-40] | 100% | 92% |  |  |  | 4.01
11 | Cc1ccc(C)c(NC(=O)N2CCC(c3nc(C4=NOC(COc5ccccc5)C4)cs3)CC2)c1 (stereo not shown) [I-41] | 100% | 94% |  |  |  | 3.36
12 | Fc1cccc(F)c1C(F)(F)C1CC(c2csc(C3CCN(C(=S)Cn4nc(C(F)F)cc4C(F)F)CC3)n2)=NO1 (stereo not shown) [I-42] | 95% | 100% |  |  |  | 3.94^[a]
13 | O=C(Cn1nc(C(F)F)cc1C(F)F)N1CCC(c2nc(-c3cc(COc4ccccc4)on3)cs2)CC1 [I-44] | 95% | 100% |  |  |  | 3.63
14 | Cc1cc(C(F)F)nn1CC(=O)N1CCC(c2nc(C3=NOC(COc4c(Cl)cccc4Cl)C3)cs2)CC1 (stereo not shown) [I-45] | 93% | 100% |  |  |  | 3.35
15 | Cc1cc(C(F)(F)F)nn1CC(=O)N1CCC(c2nc(C3=NOC(COc4c(F)cccc4Cl)C3)cs2)CC1 (stereo not shown) [I-46] | 95% | 98% |  |  |  | 3.54
16 | CC(O)(c1c(F)cccc1F)C1CC(c2csc(C3CCN(C(=O)Cn4nc(C(F)F)cc4C(F)F)CC3)n2)=NO1 (stereo not shown) [I-47] | 93% | 95% |  |  |  | 3.03
17 | Cc1ccc(Cl)cc1NC(=O)N1CCC(c2nc(C3=NOC(COc4c(F)cccc4F)C3)cs2)CC1 (stereo not shown) [I-50] | 92% | 97% |  |  |  | 3.66
18 | Cc1ccc(Cl)cc1NC(=O)N1CCC(c2nc(C3=NOC(COc4c(F)cccc4Cl)C3)cs2)CC1 (stereo not shown) [I-51] | 95% | 93% |  |  |  | 3.81

Row | SMILES | % eff. (Phytophthora infestans) | % eff. (Plasmopara viticola) | % eff. (Peronospora brassicae) | chromatographic logP (physchem; pH 2.7) | chromatographic logP (physchem; pH 7.8) | Log P [a] [1]
19 | Cc1cc(C(F)(F)F)nn1CC(=O)N1CCC(c2nc(C3=NOC(COc4c(F)cccc4F)C3)cs2)CC1 (stereo not shown) [I-54] | 100% | 97% |  |  |  | 3.34
20 | O=C(Cn1nc(C(F)F)cc1C(F)F)N1CCC(c2nc(C3=NOC(CSc4ccccc4F)C3)cs2)CC1 (stereo not shown) [I-55] | 94% | 100% |  |  |  | 3.54
21 | Cc1ccc(C)c(NC(=O)N2CCC(c3nc(C4=NOC(COc5c(Cl)cccc5Cl)C4)cs3)CC2)c1 (stereo not shown) [I-56] | 94% | 100% |  |  |  | 3.89
22 | O=C(Cn1nc(C(F)F)cc1C(F)F)N1CCC(c2nc(C3=NOC(C(F)(F)c4cccs4)C3)cs2)CC1 (stereo not shown) [I-57] | 95% | 100% |  |  |  | 3.33^[a]
23 | O=C(Cn1nc(C(F)F)cc1C(F)F)N1CCC(c2nc(C3=NOC(CSc4c(Cl)cccc4Cl)C3)cs2)CC1 (stereo not shown) [I-58] | 94% | 100% |  |  |  | 3.99
24 | Cc1ccc(Cl)cc1NC(=O)N1CCC(c2nc(C3=NOC(COc4c(Cl)cccc4Cl)C3)cs2)CC1 (stereo not shown) [I-59] | 94% | 100% |  |  |  | 4.08^[a]; 4.08^[b]
25 | O=C(Cn1nc(C(F)F)cc1C(F)F)N1CCC(c2nc(C3=NOC(CSc4ccccc4Cl)C3)cs2)CC1 (stereo not shown) [I-61] | 91% | 93% |  |  |  | 3.68
26 | Cc1cc(C(F)(F)F)nn1CC(=O)N1CCC(c2nc(C3=NOC(C(C)(C)c4c(F)cccc4F)C3)cs2)CC1 (stereo not shown) [I-62] | 91% | 96% |  |  |  | 4.09
27 | O=C(Cn1nc(C(F)F)cc1C(F)F)N1CCC(c2nc(C3=NOC(CSc4ccccc4Br)C3)cs2)CC1 (stereo not shown) [I-63] | 91% | 96% |  |  |  | 3.72
28 | Cc1cc(C(F)(F)F)nn1CC(=O)N1CCC(c2nc(C3=NOC(COc4c(Cl)cccc4Cl)C3)cs2)CC1 (stereo not shown) [I-65] | 84% | 100% |  |  |  | 3.9
29 | CC(C)(c1c(F)cccc1F)C1CC(c2csc(C3CCN(C(=O)Cn4nc(C(F)F)cc4C(F)F)CC3)n2)=NO1 (stereo not shown) [I-66] | 94% | 100% |  |  |  | 4.05
30 | Cc1cc(C(F)(F)F)nn1CC(=O)N1CCC(c2nc(C3=NOC(C(C)(C)c4c(F)cccc4Cl)C3)cs2)CC1 (stereo not shown) [I-67] | 94% | 100% |  |  |  | 4.43
31 | CC(C)(c1c(F)cccc1F)C1CC(c2csc(C3CCN(C(=O)Nc4cc(C(F)F)ccc4C(F)F)CC3)n2)=NO1 (stereo not shown) [I-68] | 94% | 96% |  |  |  | 4.29
32 | CC(C)(c1c(F)cccc1Cl)C1CC(c2csc(C3CCN(C(=O)Cn4nc(C(F)F)cc4C(F)F)CC3)n2)=NO1 (stereo not shown) [I-69] | 94% | 95% |  |  |  | 4.32
33 | O=C(Cn1nc(C(F)F)cc1C(F)F)N1CCC(c2nc(C3=NOC(COc4ccccc4Cl)C3)cs2)CC1 (stereo not shown) [I-71] | 100% | 100% |  |  |  | 3.35
34 | COc1cccc(C=O)c1OCC1CC(c2csc(C3CCN(C(=O)Cn4nc(C(F)F)cc4C(F)F)CC3)n2)=NO1 (stereo not shown) [I-72] | 95% | 81% |  |  |  | 3.02
35 | O=C(Cn1nc(C(F)F)cc1C(F)F)N1CCC(c2nc(C3=NOC(COc4c(F)cccc4Cl)C3)cs2)CC1 (stereo not shown) [I-74] | 100% | 100% |  |  |  | 3.44
